Earlier results on one compound are cited in patent US20260096996A1, “PHARMACEUTICAL COMPOSITIONS OF TRETINOIN AND METHODS OF PRODUCING SUCH COMPOSITIONS” (Douglas Pharmaceuticals Limited, priority 2022, published 2026).

For data set [1] the following is noted: patients treated for APL.

SMILES strings stand for the structures.

For the compound `CC1=C(/C=C/C(C)=C/C=C/C(C)=C/C(=O)O)C(C)(C)CCC1` [tretinoin, all-trans retinoic acid], in data set [1], the “patients experiencing nausea and vomiting” value is recorded as “More than half”. Also, the absolute bioavailability entry (in vivo) was “approximately 50%”. For the same compound, the “administered radiolabel recovered in the urine” value (orally administered, human) is given as “approximately two-thirds”. For the same compound, the “radioactivity recovered in the urine” value (within 72 hours, radiolabeled tretinoin 2.75 mg and 50 mg) was “approximately 63%”. Further, where the note is “within 6 days, radiolabeled tretinoin 2.75 mg and 50 mg”, the “radioactivity appeared in the feces” value is given as 31%.
